Assay results as given in patent publication EP0778023B1, “Product comprising rapamycin or particular derivatives and an NMDA or AMPA antagonist for use for the treatment of epilepsy or Huntington's Disease, and the use of rapamycin or particular derivatives for the manufacture of a medicament for the treatment of epilepsy or Huntington's Disease” (Wyeth, priority 1995, dated 1997).

Columns and labels:
[1] = system: Cortical neurons; assay: ischemia induced neurotoxicity in cortical cultures with NMDA and AMPA inhibitors, LDH activity; type: cell-based, rat; settings: 1 week old cortical cell cultures
Description: (§1) Briefly, rat hippocampal and cortical cultures were prepared according to the method of Furshpan and Potter with some modifications. [Neuron 3:199 (1989)]. Brains were removed from newborn Long Evans pups anesthetized with an injection of 0.1 ml of 20% chloral hydrate. The hippocampi were dissected out and separated from the rest of the cortex. Both tissues were enzymatically digested in 5 ml Earle's Balanced Salt Solution (EBSS) containing 20 u/ml papain, 1 mM L-cysteine, and 0.5 mM EDTA for 30 minutes at 37°C with gentle rocking. The hippocampi and cortical tissues were then washed once with EBSS and the digestion was stopped by incubating at 37°C for 30 minutes with 3-5 mis of inhibitor solution containing 1 mg/ml ovomucoid and 1 mg/ml albumin in EBSS. The digested hippocampi and cortical tissues were washed twice with DME without L-glutamine with 4.5 g/L dextrose before being triturated in 2 ml of DME supplemented with 5% fetal calf serum, 5% rat serum, 50 u/ml penicillin, 0.05 mg/ml streptomycin and MlTO+ serum extender [a medium supplement from Collaborative Biomedical Products] (10% DME). After 50 triturations, undissociated tissue was allowed to settle and the dissociated cell suspension was removed. A fresh 2 ml of 10% DME was added to the remaining tissue and the trituration was repeated. The two cell suspension aliquots were pooled and the cell density was determined with a hemacytometer.
(§2) 30,000 hippocampal cells in 150 µL were plated per well in 96-well plates and incubated at 37°C in 5% CO2. Cortical cells were plated at a density of 500,000 cells per well in 24-well plates. When glia cells were confluent (after approximately 3 days), 4-10 µM cytosine β-D-arabinofuranoside was added to each well to prevent further proliferation. One week after plating, the medium was removed and replaced with DME supplemented with 2.5% fetal calf serum, 2.5% rat serum, 50 u/ml penicillin, 0.05 mg/ml streptomycin, MITO+, 1 mM kynurenate and 10 mM MgCl2 (5% DME + KM). Kynurenate is a nonspecific blocker of glutamate receptors and elevated levels of magnesium block calcium and sodium influx through NMDA receptor channels. The addition of KM prevents neurotoxicity that occurs with glutamate found in serum, and allows neurons to be maintained in culture for up to several months. The cells were fed weekly by exchanging half the medium with fresh 5% DME + KM.
Cortical neurons were washed six times with DME without glucose that has been deoxygenated by bubbling the medium with 95% N2/5% CO2 for at least 10 minutes, to induce an ischemic state that will cause neuronal cell death that can be observed by measuring lactate dehydrogenase levels, as the amount of LDH activity in each well is directly correlated with the number of dead cells. 100 µM [2-(8,9-Dioxo-2,6-diazabicyclo[5.2.0]non-1(7)-en-2-yl)-ethyl]-phosphonic acid (disclosed in U.S. Patent 5,168,103 and 10 µM YM90K were added to certain wells to block NMDA and AMPA glutamate receptors, respectively. To test wells, 1 µM of the compound of Example 1 was added. Control wells were washed with normal DME with glucose and 100 µM [2-(8,9-dioxo-2,6-diazabicyclo[5.2.0]non-1(7)-en-2-yl)ethyl]phosphonic acid. 5 µL samples were taken from each well at different time points following ischemia and the LDH activity in those samples was determined by adding 250 µL of 2 mg NADH/25 mL phosphate buffer to each sample. After incubating for 20-30 minutes, 10 µL of 22.7 mM pyruvate was added and the optical density (OD) at 340 nm read. The change in optical density with time (mOD/min) reflects the amount of LDH in the sample. Higher optical density changes means more LDH activity indicating more cell death. Samples were taken from 4-8 wells per condition and the average and standard deviation for each condition and time point determined.

[2] = system: rat hippocampal and cortical cultures (hippocampal neurons); assay: glutamate induced toxicity in hippocampal cultures, count of live neurons; type: cell-based; settings: 30 µM glutamate
Description: as §1, §2
The compound to be evaluated was dissolved in DMSO to make 10 mM stock solutions and stored in aliquots at -80°C. Just before each procedure was carried out, aliquots of the stock solutions were thawed and diluted in DME or Hanks' Balanced Salt Solution (HBSS) containing 44 mM sodium bicarbonate, 10 mM glucose, and 30 µM glutamate to obtain test concentrations from 1 nM to 10 µM.
After 4-12 weeks in culture, hippocampal cells were washed three times and fed with test compound in HBSS, or serum free DME (SF DME) and 30 to 150 µM glutamate. At least three wells in every test procedure were treated with each drug concentration. 30 µM Glutamate kills 70-80% of the neurons in younger cultures, and more in older cultures. The toxicity induced by 30 µM glutamate was blocked by 1 mM kynurenate + 10 mM MgCl2 (KM).
Following overnight incubation at 37°C, the number of live hippocampal neurons remaining in five fields, representing the north, south, east, and west extremes and the center of each well, were counted. Each field was visualized through a 10x objective with a 15x eyepiece and was approximately 1.54 mm^2 in area. Conditions were generally done in triplicate. The mean number of neurons per well and the standard deviation for each condition were calculated. The mean number of neurons remaining in the control 30 µM glutamate condition reflects those that were not sensitive to glutamate toxicity.

[3] = Time 8 hours, test compound administered with the NMDA and AMPA inhibitors
[4] = Time 13 hours, with the NMDA and AMPA inhibitors
[5] = Time 24 hours, with the NMDA and AMPA inhibitors
[6] = Time 30 hours, with the NMDA and AMPA inhibitors
[7] = 2 nM test compound, HBSS, overnight incubation
[8] = 20 nM test compound, HBSS, overnight incubation
[9] = 200 nM test compound, HBSS, overnight incubation

Row | Molecule | LDH Activity [1, 3] | LDH Activity [1, 4] | LDH Activity [1, 5] | LDH Activity [1, 6] | No. Neurons Alive [2, 7] | No. Neurons Alive ([2]; 10nM test compound, SF DME, overnight incubation, mean per well (five fields)) | No. Neurons Alive [2, 8] | No. Neurons Alive ([2]; 100nM test compound, SF DME, overnight incubation) | No. Neurons Alive [2, 9] | No. Neurons Alive ([2]; 1µM test compound, SF DME, overnight incubation) | No. Neurons Alive ([2]; 10µM test compound, SF DME, overnight incubation) | No. Neurons Alive ([2]; 1 mM, HBSS, overnight incubation (second table)) | No. Neurons Alive ([2]; 1 mM, SF DME, overnight incubation (first table))
1 | CO[C@H]1C[C@@H]2CC[C@@H](C)[C@@](O)(O2)C(=O)C(=O)N2CCCC[C@H]2C(=O)O[C@H]([C@H](C)C[C@@H]2CC[C@@H](O)[C@H](OC)C2)CC(=O)[C@H](C)/C=C(\C)[C@@H](O)[C@@H](OC)C(=O)[C@H](C)C[C@H](C)/C=C/C=C/C=C/1C [Example 1, Rapamycin] | 1.04 mOD/min | 3.08 mOD/min | 9.00 mOD/min | 14.02 mOD/min | 63 | 114 | 71 | 92 | 229 | 46 | 47 |  | 
2 | CO[C@H]1C[C@@H]2CC[C@@H](C)[C@@](O)(O2)C(=O)C(=O)N2CCCC[C@H]2C(=O)O[C@H]([C@H](C)C[C@@H]2CC[C@@H](OS(=O)(=O)c3ccc(N=Nc4ccc(N(C)C)cc4)cc3)[C@H](OC)C2)CC(=O)[C@H](C)/C=C(\C)[C@@H](O)[C@@H](OC)C(=O)[C@H](C)C[C@H](C)/C=C/C=C/C=C/1C [Example 3, Rapamycin 42-ester with 4-[[4-(dimethylamino)phenyl]azo]benzenesulfonic acid] | 0.84 mOD/min | 2.36 mOD/min | 7.03 mOD/min | 11.25 mOD/min | 98 |  | 285 |  | 241 |  |  |  | 
3 | O=C(O)c1cc(O)c2ccccc2n1 [Kynurenate, kynurenate, reference compound] |  |  |  |  |  |  |  |  |  |  |  | 202 | 82
4 | Rapamycin 1,3, Diels Alder adduct with Phenyltriazolinedione [Example 2] | 1.08 mOD/min | 2.31 mOD/min | 7.69 mOD/min | 12.43 mOD/min | 110 |  | 180 |  | 127 |  |  |  | 
5 | Rapamycin 1,3-Diels Alder adduct with methyltriazolinedione [Example 4] | 0.91 mOD/min | 2.54 mOD/min | 8.21 mOD/min | 13.31 mOD/min | 117 |  | 130 |  | 157 |  |  |  | 
6 | Rapamycin-O-benzyl-27-oxime [Example 5] | 0.74 mOD/min | 1.65 mOD/min | 4.82 mOD/min | 8.83 mOD/min | 131 |  | 96 |  | 135 |  |  |  | 
